In patent US20220402900A1, “1,2,4-OXADIAZOL-5-ONE DERIVATIVES FOR THE TREATMENT OF CANCER” (Basilea Pharmaceutica International AG, priority 2019, published 2022):

What was measured:
[1] = biological target: T1, human TEAD2 (amino acids 217-447) (Homo sapiens, UniProt Q15562); assay: Thermal shift assay (TSA); format: binding; conditions: 3 μM recombinant TEAD2, compound 7 μM, shift vs DMSO control
T1 construct: human TEAD2 (amino acids 217-447); His-tag (N); purchased Proteros biostructures PR-0365; host or cells: E. coli
T1 sequence (Q15562 217-447): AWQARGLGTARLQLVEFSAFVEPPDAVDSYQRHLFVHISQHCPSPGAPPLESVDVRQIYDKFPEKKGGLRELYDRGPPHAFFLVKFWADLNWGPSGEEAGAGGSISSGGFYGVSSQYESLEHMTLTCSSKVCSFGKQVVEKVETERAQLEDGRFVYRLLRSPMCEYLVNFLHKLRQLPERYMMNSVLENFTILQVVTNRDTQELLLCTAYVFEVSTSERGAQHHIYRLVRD
Procedure: The thermal shift assay (TSA) was utilized to characterize target engagement in vitro based on ligand-dependent thermal stabilization of the protein. N-terminally His-tagged human TEAD2 (amino acids 217-447) expressed and purified from E. coli was purchased from Proteros biostructures (cat no. PR-0365). The melting reactions were performed in white, 96 well qPCR plates (Roche Diagnostics, cat. no. 04 729 692 001) in 20 mM HEPES pH 7, 100 mM NaCl in the presence of 4×SYPRO orange (Sigma, cat. no. S5692). Each well contained 3 μM recombinant TEAD2 and either DMSO (control) or experimental compounds at a final concentration of 7 μM. The total volume was 20 μL and the final DMSO concentration was 1%. The plate was sealed and analyzed in a LightCycler 480 II (Roche Diagnostics) by continuously reading the fluorescence using the 465-580 nm filter set while heating from 25° C. to 95° C. using a linear gradient of 1° C./min. Melting temperatures were determined by numerical differentiation using the LightCycler Thermal Shift Analysis software (Roche Diagnostics). The shifts in melting temperature caused by experimental compounds compared to the control are expressed as ΔTm (Table 2).

[2] = test system: TEAD-dependent PD marker CTGF; assay: MSTO-211H tumor xenograft pharmacodynamic (PD) study; format: in vivo, mice; conditions: 250 mg/kg po qd×5, MSTO-211H tumors isolated 3 hours after last dose
Procedure: Female CB. 17 SCID mice (Charles River) were subcutaneously inoculated with 5×10^6 MSTO-211H tumor cells (ATCC, CRL-2081) in 0.1 mL of PBS mixed with matrigel (1:1) (BD Biosciences). Randomization into two groups was performed when the mean tumor size reached approximately 300-400 mm^3, after which drug treatments were started.
Animals were dosed daily orally at the specified concentrations of the compound of Example 2 or the compound of Example 11 using an oral-gavage needle. The dosing volume was 10 mL/kg per mouse, with a volume adjusted to the mouse body weight. The vehicle control (water containing 0.5% hydroxypropyl methyl cellulose (Sigma-Aldrich, #H9262) and 0.5% Tween 80 (Sigma-Aldrich, #P1754)) was administered in the same way.
PD marker analysis was performed on tumors that were collected from animals 3 hours after the last dose was given. […] The tumor protein lysates were prepared and analyzed using standard Western blot procedures. […] For quantitative PCR (qPCR) analyses, RNA was converted into cDNA following manufacturer's instructions (SuperScript™ III First-Strand Synthesis for RT-PCR, Invitrogen, #18080-051). […] The increase in fluorescence was analyzed with the instrument-specific software (Roche, LightCycler® 480 II), and a mean quantity was calculated from duplicate or triplicate PCRs for each sample using the ΔΔCt method.

[3] = test system: TEAD reporter gene activity; assay: TEAD reporter gene assay (MCF7 TEAD reporter cell line); format: cell-based; conditions: Homo sapiens; TEAD luciferase reporter in MCF7 cells, 24 hours; read-out: IC50 TEAD RGA (converted)
Excerpt: A TEAD reporter cell line was purchased from BPS Bioscience (cat. no. 60618). It contains the firefly luciferase gene under control of TEAD responsive elements stably integrated into the human breast cancer MCF7 cells. In proliferating cells, a basal level of unphosphorylated YAP/TAZ resides in the nucleus and drives the TEAD-dependent expression of the luciferase reporter. The cells were cultivated as recommended by the supplier. Inhibition of TEAD reporter gene activity by experimental compounds was measured using white, clear-bottom, 96 well cell culture plates (Greiner Bio-One, cat. no. 655098). The cells were seeded at a density of 20,000 cells per well in 100 μL growth medium and the plates were incubated overnight at 37° C. with 5% CO2 prior to treatment. Experimental compounds were serially diluted in DMSO to 200× the desired final concentrations. 0.5 μL aliquots of DMSO or the test samples were then mixed into the wells and the cells were further incubated for 24 hours. Luminescence was then measured on a Synergy 4 reader (BioTek) using the ONE-Glo Luciferase Assay System (Promega, cat. no. E6120) according to the manufacturer's instructions. Relative inhibition values were calculated by normalizing the raw data using DMSO-treated cells (0% inhibition) and wells devoid of cells (100% inhibition). IC50 values were calculated by fitting concentration-response data to a sigmoidal 4-parameter logistic model.

Structure (SMILES)	ΔTm at 7 µM [1] [°C]	decrease of CTGF mRNA to (normalized to actin mRNA) [2] [%]	IC50 [3] [nM]
COc1ccnc(Nc2ccc(C(F)(F)F)cc2)c1-c1noc(=O)[nH]1 [Example 11, 3-[4-methoxy-2-[4-(trifluoromethyl)anilino]-3-pyridyl]-4H-1,2,4-oxadiazol-5-one]	6.7	32	39
O=c1[nH]c(-c2c(OCCO)ccnc2Nc2ccc(C(F)(F)F)cc2)no1 [Example 51, 3-[4-(2-hydroxyethoxy)-2-[4-(trifluoromethyl)anilino]-3-pyridyl]-4H-1,2,4-oxadiazol-5-one]	5.1		135
Nc1cnc(-c2noc(=O)[nH]2)c(Nc2ccc(C(F)(F)F)cc2)n1 [Example 36, 3-[5-amino-3-[4-(trifluoromethyl)anilino]pyrazin-2-yl]-4H-1,2,4-oxadiazol-5-one]	3.5		149
Cc1cnc(Nc2ccc(C(F)(F)F)cc2)c(-c2noc(=O)[nH]2)n1 [Example 32, 3-[6-methyl-3-[4-(trifluoromethyl)anilino]pyrazin-2-yl]-4H-1,2,4-oxadiazol-5-one]	10.2		28
O=c1[nH]c(-c2nccnc2Nc2ccc(S(F)(F)(F)(F)F)cc2)no1 [Example 50, 3-[3-[4-(pentafluoro-λ6-sulfanyl)anilino]pyrazin-2-yl]-4H-1,2,4-oxadiazol-5-one]	12.2		37
O=C(O)COc1ccnc(Nc2ccc(C(F)(F)F)cc2)c1-c1noc(=O)[nH]1 [Example 58, 2-[[3-(5-oxo-4H-1,2,4-oxadiazol-3-yl)-2-[4-(trifluoromethyl)anilino]-4-pyridyl]oxy]acetic acid]	3		13700
CC(C)c1ccc(Nc2nccnc2-c2noc(=O)[nH]2)cc1 [Example 16, 3-[3-(4-isopropylanilino)pyrazin-2-yl]-4H-1,2,4-oxadiazol-5-one]	11.1		552
NC(=O)COc1ccnc(Nc2ccc(C(F)(F)F)cc2)c1-c1noc(=O)[nH]1 [Example 59, 2-[[3-(5-oxo-4H-1,2,4-oxadiazol-3-yl)-2-[4-(trifluoromethyl)anilino]-4-pyridyl]oxy]acetamide]	6.7		2750
NCCc1cnc(Nc2ccc(C(F)(F)F)cc2)c(-c2noc(=O)[nH]2)n1 [Example 7, 3-[6-(2-aminoethyl)-3-[4-(trifluoromethyl)anilino]pyrazin-2-yl]-4H-1,2,4-oxadiazol-5-one]	0.5		2840
O=c1[nH]c(-c2ncccc2Nc2ccc(C(F)(F)F)cc2)no1 [Example 9, 3-[3-[4-(trifluoromethyl)anilino]-2-pyridyl]-4H-1,2,4-oxadiazol-5-one]	9.2		52
O=c1[nH]c(-c2nccnc2Nc2ccc(OCC3CC3)cc2)no1 [Example 14, 3-[3-[4-(cyclopropylmethoxy)anilino]pyrazin-2-yl]-4H-1,2,4-oxadiazol-5-one]	9		2770
Cc1cc(C)c(-c2noc(=O)[nH]2)c(Nc2ccc(C(F)(F)F)cc2)n1 [Example 26, 3-[4,6-dimethyl-2-[4-(trifluoromethyl)anilino]-3-pyridyl]-4H-1,2,4-oxadiazol-5-one]	9.2		433
O=c1[nH]c(-c2nccnc2Nc2ccc(Cl)cc2)no1 [Example 43, 3-[3-(4-chloroanilino)pyrazin-2-yl]-4H-1,2,4-oxadiazol-5-one]	6.6		930
CC(C)Oc1ccnc(Nc2ccc(C(F)(F)F)cc2)c1-c1noc(=O)[nH]1 [Example 52, 3-[4-isopropoxy-2-[4-(trifluoromethyl)anilino]-3-pyridyl]-4H-1,2,4-oxadiazol-5-one]	5.1		179
CS(=O)(=O)NCCOc1ccnc(Nc2ccc(C(F)(F)F)cc2)c1-c1noc(=O)[nH]1 [Example 57, N-[2-[[3-(5-oxo-4H-1,2,4-oxadiazol-3-yl)-2-[4-(trifluoromethyl)anilino]-4-pyridyl]oxy]ethyl]methanesulfonamide]	4.1		388
COc1cc(Nc2nccnc2-c2noc(=O)[nH]2)ccc1C(F)(F)F [Example 22, 3-[3-[3-methoxy-4-(trifluoromethyl)anilino]pyrazin-2-yl]-4H-1,2,4-oxadiazol-5-one]	6.1		70
O=c1[nH]c(-c2nc3ccccc3nc2Nc2ccc(C(F)(F)F)cc2)no1 [Example 37, 3-[3-[4-(trifluoromethyl)anilino]quinoxalin-2-yl]-4H-1,2,4-oxadiazol-5-one]	12.1		188
CC(=O)NCCOc1ccnc(Nc2ccc(C(F)(F)F)cc2)c1-c1noc(=O)[nH]1 [Example 56, N-[2-[[3-(5-oxo-4H-1,2,4-oxadiazol-3-yl)-2-[4-(trifluoromethyl)anilino]-4-pyridyl]oxy]ethyl]acetamide]	4.3		767
Nc1cc(Nc2nccnc2-c2noc(=O)[nH]2)ccc1C(F)(F)F [Example 33, 3-[3-[3-amino-4-(trifluoromethyl)anilino]pyrazin-2-yl]-4H-1,2,4-oxadiazol-5-one]	3.6		127
N#CC1(c2ccc(Nc3nccnc3-c3noc(=O)[nH]3)cc2)CCC1 [Example 42, 1-[4-[[3-(5-oxo-4H-1,2,4-oxadiazol-3-yl)pyrazin-2-yl]amino]phenyl]cyclobutanecarbonitrile]	5.3		711
O=c1[nH]c(-c2nccnc2Nc2ccc(Cl)c(C(F)(F)F)c2)no1 [Example 30, 3-[3-[4-chloro-3-(trifluoromethyl)anilino]pyrazin-2-yl]-4H-1,2,4-oxadiazol-5-one]	5.3		4910
